The source of these data is patent US20260042769A1, “TRIARYL AGONISTS OF ALPHA-2 ADRENERGIC RECEPTORS” (ALCEPTOR THERAPEUTICS, INC., priority 2023, published 2026).

The assay addresses T1, human ADRA2B receptor (Homo sapiens, UniProt P18089).
T1 construct: expressed in transfected cells
T1 sequence (P18089 1-450): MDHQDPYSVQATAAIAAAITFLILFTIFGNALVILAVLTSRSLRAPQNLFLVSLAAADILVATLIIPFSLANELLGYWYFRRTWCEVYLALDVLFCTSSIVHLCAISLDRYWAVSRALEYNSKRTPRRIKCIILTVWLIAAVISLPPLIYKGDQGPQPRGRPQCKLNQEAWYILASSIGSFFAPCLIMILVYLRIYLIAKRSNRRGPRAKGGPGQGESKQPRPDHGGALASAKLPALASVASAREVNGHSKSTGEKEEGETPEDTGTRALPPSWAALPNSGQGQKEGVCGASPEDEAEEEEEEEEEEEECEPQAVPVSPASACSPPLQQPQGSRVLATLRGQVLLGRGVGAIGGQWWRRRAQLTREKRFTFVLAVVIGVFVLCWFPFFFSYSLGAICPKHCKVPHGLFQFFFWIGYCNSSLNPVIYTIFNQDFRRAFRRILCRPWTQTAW
Put plainly: GTPγS agonist assay, ADRA2B receptor. The note with it: read-out: GTPase - Human Alpha2B EC50. It is filed as biochemical. The method, boiled down: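 CHO-K1 membranes stably expressing human ADRA2B (5 μg protein) in 20 mM HEPES, 10 mM MgCl2, 200 mM NaCl with GDP, preincubated 10 min at room temperature with compound. Binding reaction 1 h at 37° C; bound label collected on GF/C filters, washed, read by scintillation counting.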
The term EC50 denotes the midpoint of the concentration-response curve. `FC1(F)Oc2cccc([C@H](Cc3ccccn3)c3c[nH]cn3)c2O1` [Compound 122, 4-[(S)-1-(4-imidazolyl)-2-(2-pyridyl)ethyl]-2,2-difluoro-2H-1,3-benzodioxole]: the EC50 was more than 0.5 µM. `FC(F)(F)c1ccc(Cl)c(C(Cc2cccnn2)c2c[nH]cn2)c1` (stereo not drawn) [Compound 361, 3-{2-[2-chloro-5-(trifluoromethyl)phenyl]-2-(4-imidazolyl)ethyl}pyridazine]: the EC50 was more than 0.5 µM. The same measure for `COc1nccc(CC(c2c[nH]cn2)c2cccc(OC)c2C)n1` (stereo not drawn) [Compound 178, 4-[2-(4-imidazolyl)-2-(3-methoxy-2-tolyl)ethyl]-2-methoxypyrimidine]: 0.01 to 0.05 µM; for `COc1ccc(C(Cc2cccnn2)c2c[nH]cn2)cc1` (stereo not drawn) [Compound 222, 3-[2-(4-imidazolyl)-2-(p-methoxyphenyl)ethyl] pyridazine]: more than 0.5 µM. Next, `COc1nccc(CC(c2c[nH]cn2)c2cccc(Cl)c2OC)n1` (stereo not drawn) [Compound 198, 4-[2-(3-chloro-2-methoxyphenyl)-2-(4-imidazolyl)ethyl]-2-methoxypyrimidine]: 0.01 to 0.05 µM; `Cc1cccc(CC(c2cnc[nH]2)c2cccc(C)c2C)n1` (stereo not drawn) [Compound 96, 2-[2-(2,3-dimethylphenyl)-2-(1H-imidazol-4-yl)ethyl]-6-methyl-pyridine]: 0.01 to 0.05 µM.

Turning to `COc1cccc(CC(c2c[nH]cn2)c2ccnc(C)c2C)n1` (stereo not drawn) [Compound 13, 4-[1-(1H-imidazol-4-yl)-2-(6-methoxypyridin-2-yl)ethyl]-2,3-dimethylpyridine], the EC50 is more than 0.5 µM. The same measure for `Cc1cccc(C(Cc2cccc(=O)[nH]2)c2cnc[nH]2)c1C` (stereo not drawn) [Compound 87, 6-[2-(2,3-dimethylphenyl)-2-(1H-imidazol-4-yl)ethyl] pyridin-2-ol]: more than 0.5 µM; for `c1cnnc(C[C@@H](c2c[nH]cn2)c2cccc3c2CCO3)c1` [Compound 324, 3-[(R)-2-(2,3-dihydro-1-benzofuran-4-yl)-2-(4-imidazolyl)ethyl]pyridazine]: more than 0.5 µM. Next, `Cc1csc(CC(c2c[nH]cn2)c2cccc(C)c2C)n1` (stereo not drawn) [Compound 132, 2-[2-(4-imidazolyl)-2-(2,3-xylyl)ethyl]-4-methyl-1,3-thiazole]: less than 0.01 µM; `Cc1cccc(C(Cc2ccc(=O)[nH]n2)c2c[nH]cn2)c1C` (stereo not drawn) [Compound 86, 6-[2-(2,3-dimethylphenyl)-2-(1H-imidazol-4-yl)ethyl]-2,3-dihydropyridazin-3-one]: less than 0.01 µM; `COc1cccc(C[C@@H](c2cccc(Cl)c2)c2cnc[nH]2)n1` [Compound 21, 2-[(2S)-2-(3-chlorophenyl)-2-(1H-imidazol-4-yl)ethyl]-6-methoxypyridine]: 0.01 to 0.05 µM. Next, `Cc1cccc(C(Cc2ccc(N3CCCC3)nc2)c2c[nH]cn2)c1C` (stereo not drawn) [Compound 309, 4-{2-[6-(1-pyrrolidinyl)-3-pyridyl]-1-(2,3-xylyl)ethyl}imidazole]: 0.01 to 0.05 µM. For the molecule `COc1cccc(C(Cc2ccnc(C)n2)c2c[nH]cn2)c1C` (stereo not drawn) [Compound 149, 4-[2-(4-imidazolyl)-2-(3-methoxy-2-tolyl)ethyl]-2-methylpyrimidine], the EC50 fell in the range of 0.01 to 0.05 µM. Regarding `COc1cccc(C[C@H](c2c[nH]cn2)c2cccc(Cl)c2C)n1` [Compound 14, 2-[(2S)-2-(3-chloro-2-methylphenyl)-2-(1H-imidazol-4-yl)ethyl]-6-methoxypyridine], the EC50 is 0.05 to 0.5 µM. For the molecule `c1ccc(C[C@H](c2cnc[nH]2)c2cccc3c2COC3)nc1` [Compound 45, 2-[(2S)-2-(1,3-dihydro-2-benzofuran-4-yl)-2-(1H-imidazol-4-yl)ethyl] pyridine], the EC50 was more than 0.5 µM. Next, `Cc1cccc([C@@H](Cc2ccccn2)c2cnc[nH]2)c1C` [Compound 52, 2-[(2R)-2-(2,3-dimethylphenyl)-2-(1H-imidazol-4-yl)ethyl] pyridine]: 0.01 to 0.05 µM; `Cc1ccnc(C[C@H](c2cnc[nH]2)c2cccc(C)c2C)n1` [Compound 78, 2-[(2S)-2-(2,3-dimethylphenyl)-2-(1H-imidazol-4-yl)ethyl]-4-methylpyrimidine]: more than 0.5 µM.
